This assay has as its target T1, human GPR119 (Homo sapiens, UniProt Q8TDV5).
T1 construct: expression vector for human GPR119 cDNA (Acc. No. NP_848566); expressed in transfected cells; Min-6/hGPR119
T1 sequence (Q8TDV5 1-335): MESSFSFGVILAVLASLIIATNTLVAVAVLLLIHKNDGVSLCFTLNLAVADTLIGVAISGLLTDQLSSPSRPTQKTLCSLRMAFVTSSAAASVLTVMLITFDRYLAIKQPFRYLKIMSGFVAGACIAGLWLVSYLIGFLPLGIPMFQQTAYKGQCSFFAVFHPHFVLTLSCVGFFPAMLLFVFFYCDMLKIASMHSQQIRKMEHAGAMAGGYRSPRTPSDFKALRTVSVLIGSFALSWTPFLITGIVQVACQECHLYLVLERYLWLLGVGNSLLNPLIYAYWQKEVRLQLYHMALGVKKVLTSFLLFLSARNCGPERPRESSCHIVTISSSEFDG
The assay can be described thus: AlphaScreen cAMP assay in MIN6 cells stably transfected with human GPR119. It is filed as cell-based. The note with it: Min-6/hGPR119 cells, 45 min at room temperature. The essentials: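 MIN6 cells stably expressing human GPR119, seeded 10000/well and grown 24 h, were exposed to compound in pH 7.4 buffer with 0.5 mM IBMX, 0.1% BSA and 1% DMSO for 45 min at room temperature. Intracellular cAMP then measured by AlphaScreen.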
In general terms: Bead proximity is the source of the signal in Alpha formats.
In turn, `COC1CN(C(=O)c2ccc(-c3ncc(C(=O)N(C4CC4)C4CCN(C(=O)OC(C)(C)C)CC4)cn3)cc2)C1` [Example 226, 4-(Cyclopropyl-{2-[4-(3-methoxy-azetidine-1-carbonyl)-phenyl]-pyrimidine-5-carbonyl}-amino)-piperidine-1-carboxylic acid tert-butyl ester] showed an EC50 of 179 nM.
Compound `CC(C)(C)OC(=O)N1CCC(N(C(=O)c2cnc(-c3ccc(C(=O)NCCOC(F)(F)F)cc3)nc2)C2CC2)CC1` [Example 227, 4-(Cyclopropyl-{2-[4-(2-trifluoromethoxy-ethylcarbamoyl)-phenyl]-pyrimidine-5-carbonyl]-amino)-piperidine-1-carboxylic acid tert-butyl ester] returned an EC50 of 161 nM.
`CC(C)(C)OC(=O)N1CCC(N(C(=O)c2cnc(-c3ccc(C(=O)NCc4cocn4)cc3)nc2)C2CC2)CC1` [Example 228, 4-[Cyclopropyl-(2-{4-[(oxazol-4-ylmethyl)-carbamoyl]-phenyl}-pyrimidine-5-carbonyl)-amino]-piperidine-1-carboxylic acid tert-butyl ester] yielded an EC50 of 379 nM.
Then `CC(C)(C)OC(=O)N1CCC(N(C(=O)c2cnc(-c3ccc(C(=O)NCc4cccnc4)cc3)nc2)C2CC2)CC1` [Example 229, 4-[Cyclopropyl-(2-{4-[(pyridin-3-ylmethyl)-carbamoyl]-phenyl}-pyrimidine-5-carbonyl)-amino]-piperidine-1-carboxylic acid tert-butyl ester], with 177 nM; and `CC(C)(C)OC(=O)N1CCC(N(C(=O)c2cnc(-c3ccc(C(=O)N4CCOCC4)cc3)nc2)C2CC2)CC1` [Example 230, 4-(Cyclopropyl-{2-[4-(morpholine-4-carbonyl)-phenyl]-pyrimidine-5-carbonyl}-amino)-piperidine-1-carboxylic acid tert-butyl ester], with 297 nM.
`CC(C)(C)OC(=O)N1CCC(N(C(=O)c2cnc(-c3ccc(C(=O)Nc4ccnnc4)cc3)nc2)C2CC2)CC1` [Example 231, 4-(Cyclopropyl-{2-[4-(pyridazin-4-ylcarbamoyl)-phenyl]-pyrimidine-5-carbonyl}-amino)-piperidine-1-carboxylic acid tert-butyl ester] returned an EC50 of 414 nM.
Turning to `CC(C)(C)OC(=O)N1CCC(N(C(=O)c2cnc(-c3ccc(C(=O)NCc4cccnn4)c(F)c3)nc2)C2CC2)CC1` [Example 232, 4-[Cyclopropyl-(2-{3-fluoro-4-[(pyridazin-3-ylmethyl)-carbamoyl]-phenyl}-pyrimidine-5-carbonyl)-amino]-piperidine-1-carboxylic acid tert-butyl ester], it took 422 nM to reach a half-maximal effect (EC50).
`CN(CCC#N)C(=O)c1ccc(-c2ncc(C(=O)N(C3CC3)C3CCN(C(=O)OC(C)(C)C)CC3)cn2)cc1F` [Example 234, 4-[(2-{4-[(2-Cyano-ethyl)-methyl-carbamoyl]-3-fluoro-phenyl}-pyrimidine-5-carbonyl)-cyclopropyl-amino]-piperidine-1-carboxylic acid tert-butyl ester] had an EC50 of 297 nM.
Then `COC[C@H]1CCCN1C(=O)Cc1ccc(-c2ncc(C(=O)N(C3CC3)C3CCN(C(=O)OC(C)(C)C)CC3)cn2)cc1` [Example 235, 4-[Cyclopropyl-(2-{4-[2-(2-methoxymethyl-pyrrolidin-1-yl)-2-oxo-ethyl]-phenyl}-pyrimidine-5-carbonyl)-amino]-piperidine-1-carboxylic acid tert-butyl ester], with 307 nM; and `CN(Cc1cccnc1)C(=O)Cc1ccc(-c2ncc(C(=O)N(C3CC3)C3CCN(C(=O)OC(C)(C)C)CC3)cn2)cc1` [Example 236, 4-[Cyclopropyl-(2-{4-[(methyl-pyridin-3-ylmethyl-carbamoyl)-methyl]-phenyl}-pyrimdine-5-carbonyl)-amino]-piperidine-1-carboxylic acid tert-butyl ester], with 317 nM.
The compound `CC(C)(C)OC(=O)N1CCC(N(C(=O)c2cnc(-c3ccc(C(=O)NCC4CCOC4)cc3)nc2)C2CC2)CC1` (stereo not shown) [Example 237, 4-[Cyclopropyl-(2-{4-[(tetrahydro-furan-3-ylmethyl)-carbamoyl]-phenyl}-pyrimidine-5-carbonyl)-amino]-piperidine-1-carboxylic acid tert-butyl ester] gave an EC50 of 408 nM.
Turning to `COc1ccc(NC(=O)c2ccc(-c3ncc(C(=O)N(C4CC4)C4CCN(C(=O)OC(C)(C)C)CC4)cn3)cc2)c(OC)c1` [Example 238, 4-(Cyclopropyl-{2-[4-(2,4-dimethoxy-phenylcarbamoyl)-phenyl]-pyrimidine-5-carbonyl}-amino)-piperidine-1-carboxylic acid tert-butyl ester], a half-maximal effect (EC50) was put at 111 nM.
Then `CC(C)(C)OC(=O)N1CCC(N(C(=O)c2cnc(-c3ccc(C(=O)N4CCC(C#N)C4)cc3)nc2)C2CC2)CC1` (stereo not shown) [Example 239, 4-({2-[4-(3-Cyano-pyrrolidine-1-carbonyl)-phenyl]-pyrimidine-5-carbonyl}-cyclopropyl-amino)-piperidine-1-carboxylic acid tert-butyl ester], with 424 nM; and `COCc1cccc(NC(=O)c2ccc(-c3ncc(C(=O)N(C4CC4)C4CCN(C(=O)OC(C)(C)C)CC4)cn3)cc2)c1` [Example 240, 4-(Cyclopropyl-{2-[4-(3-methoxymethyl-phenylcarbamoyl)-phenyl]-pyrimidine-5-carbonyl}-amino)-piperidine-1-carboxylic acid tert-butyl ester], with 171 nM; and `CC(C)(C)OC(=O)N1CCC(N(C(=O)c2cnc(-c3ccc(C(=O)NCc4ccncc4)cc3)nc2)C2CC2)CC1` [Example 241, 4-[Cyclopropyl-(2-{4-[(pyridin-4-ylmethyl)-carbamoyl]-phenyl}-pyrimidine-5-carbonyl)-amino]-piperidine-1-carboxylic acid tert-butyl ester], with 245 nM.
Take `CC(C)(C)OC(=O)N1CCC(N(C(=O)c2cnc(-c3ccc(C(=O)N4CCCC4CO)cc3)nc2)C2CC2)CC1` (stereo not shown) [Example 242, 4-(Cyclopropyl-{2-[4-(2-hydroxymethyl-pyrrolidine-1-carbonyl)-phenyl]-pyrimidine-5-carbonyl}-amino)-piperidine-1-carboxylic acid tert-butyl ester]: a half-maximal response (EC50) required 593 nM.
`COCCNC(=O)c1ccc(-c2ncc(C(=O)N(C3CC3)C3CCN(C(=O)OC(C)(C)C)CC3)cn2)cc1` [Example 243, 4-(Cyclopropyl-{2-[4-(2-methoxy-ethylcarbamoyl)-phenyl]-pyrimidine-5-carbonyl}-amino)-piperidine-1-carboxylic acid tert-butyl ester] had an EC50 of 309 nM.
Then `CC(C)(C)OC(=O)N1CCC(N(C(=O)c2cnc(-c3ccc(C(=O)NCC4CCCO4)cc3)nc2)C2CC2)CC1` (stereo not shown) [Example 244, 4-[Cyclopropyl-(2-{4-[(tetrahydro-furan-2-ylmethyl)-carbamoyl]-phenyl)-pyrimidine-5-carbonyl)-amino]-piperidine-1-carboxylic acid tert-buyl ester], with 237 nM; and `CC(C)(C)OC(=O)N1CCC(N(C(=O)c2cnc(-c3ccc(C(=O)N4CCC[C@@H]4C#N)cc3)nc2)C2CC2)CC1` [Example 245, 4-({2-[4-(2-Cyano-pyrrolidine-1-carbonyl)-phenyl]-pyrimidine-5-carbonyl}-cyclopropyl-amino)-piperidine-1-carboxylic acid tert-butyl ester], with 322 nM.
Then `Cc1cnc(CNC(=O)c2ccc(-c3ncc(C(=O)N(C4CC4)C4CCN(C(=O)OC(C)(C)C)CC4)cn3)cc2)s1` [Example 246, 4-[Cyclopropyl-(2-{4-[(5-methyl-thiazol-2-ylmethyl)-carbamoyl]-phenyl}-pyrimidine-5-carbonyl)-amino]-piperidine-1-carboxylic acid tert-butyl ester], with 169 nM; and `CC(C)(C)OC(=O)N1CCC(N(C(=O)c2cnc(-n3ccnc3)nc2)C2CC2)CC1` [Example 247], with 51 nM; and `C[C@H](OC(=O)N1CCC(N(C(=O)c2cnc(-c3cnco3)cn2)C2CC2)CC1)C(F)(F)F` [Example 258, 4-[Cyclopropyl-(5-oxazol-5-yl-pyrazine-2-carbonyl)-amino]-piperidine-1-carboxylic acid (S)-2,2,2-trifluoro-1-methyl-ethyl ester], with 61 nM.

Broadly, the EC50 is the midpoint of the concentration-response curve. A lower EC50 goes with an effect from little substance.

The values above are taken from patent US20140045823A1 (Neurocrine Biosciences, Inc., priority 2012, published 2014).
